In general, pIC50 refers to the negative decadic logarithm of the IC50, by convention in mol/L. Higher therefore signals a small IC50.

Among the data in the supplement of paper PMC3493320 are IC50 values, retold here.

pIC50: −log10 of the molar value. A value given as a limit tells only on which side of the number the result lay.

The test deals with NCI-H295R. Put plainly: IC50 (antiproliferative, ATP content). Conditions: 48 h. The method in brief: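 Adrenocortical carcinoma cells were plated at 1500 per well in 1536-well plates in serum-free DMEM with ITS supplement, left overnight, then given library compounds by pin transfer at 8 final concentrations spanning 0.6 nM to 46 µM and held 48 h at 37 °C, 5% CO2. ATP was measured as CellTiter-Glo luminescence after 20 min at room temperature and scaled between vehicle and positive-control wells. A four-parameter logistic model was fitted to each series. The IC50 was taken from these fits, and compounds without a concentration response were recorded as above the top dose.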
`CCN(CC)CCC(=O)N1c2ccccc2Sc2ccc(Cl)cc21`: the pIC50 was below 4.34.
In turn, `CC(=O)NC(Cc1ccccc1)C(=O)O` (configuration not stated) had a pIC50 below 4.34.
Compound `CN1[C@@H]2CC[C@H]1C[C@@H](OC(=O)C(CO)c1ccccc1)C2` (some centres not stated) had a pIC50 below 4.34.
Take `BrC2=CC=C(C=C2)[C@@H]([C@@]1=CC=CC=N1)CCN(C)C.O=C(O)/C=C\C(O)=O`: the pIC50 is below 4.34.
Consider `c1ccc2sc(SNC3CCCCC3)nc2c1`, for which the pIC50 was below 4.34.
In the case of `FC(F)(F)C(F)(F)C(F)(F)C(F)(F)C(F)(F)F` it was below 4.34.
Compound `CC(C)C[C@H](CN)CC(=O)O` gave a pIC50 below 4.34.
`CCCC1CCCCN1` (configuration not stated) showed a pIC50 below 4.34.
As to `O=C(CCNNC(=O)c1ccncc1)NCc1ccccc1`, the pIC50 was below 4.34.
In turn, `O=P([O-])(O)C(O)(Cc1cccnc1)P(=O)([O-])O.[Na+].[Na+]` gave a pIC50 below 4.34.
With `COc1cc2c(cc1OC)C(=O)C(CC1CCN(Cc3ccccc3)CC1)C2.Cl` (configuration not stated), the pIC50 is below 4.34.
With `Clc1ccc2c(c1)C(N1CCNCC1)=Nc1ccccc1O2`, the pIC50 is below 4.34.
In the case of `NS(=O)(=O)Cc1noc2ccccc12` it was below 4.34; in that of `C[Se]CC[C@H](N)C(=O)O`, below 4.34; in that of `C[N+](C)(C)CC[N+]1(C)Cc2c(Cl)c(Cl)c(Cl)c(Cl)c2C1.[Cl-].[Cl-]`, below 4.34.
Under `CC(=O)N(CC(O)CO)c1c(I)c(C(=O)NCC(O)CO)c(I)c(C(=O)NCC(O)CO)c1I` (configuration not stated) stands below 4.34.
As for `[O-][C@@]([C@@]13[C@@]([C@]2([H])OC(C)(C)OC[C@@]([H])2O3)([H])OC(C)(C)O1)=O.[Na+]`, the pIC50 was below 4.34.
Regarding `[NH2][Pt]([NH2])([Cl])[Cl]`, the pIC50 is below 4.34.
Compound `N=C(N)N1CCc2ccccc2C1.N=C(N)N1CCc2ccccc2C1.O=S(=O)(O)O` gave a pIC50 below 4.34.
With `CN1CCC(=C2c3ccccc3CC(=O)c3sccc32)CC1`, the pIC50 was below 4.34.
As to `O=C1C2=C(C=C(C=C2O)O)O/C(=C\1O)C3=CC(=C(C=C3)O)O.O.O`, the pIC50 is below 4.34.
In turn, `CC(=O)OCC(=O)[C@@]1(OC(C)=O)[C@@H](C)C[C@H]2[C@@H]3C[C@H](F)C4=CC(=O)C=C[C@]4(C)[C@@]3(F)[C@@H](O)C[C@@]21C` showed a pIC50 below 4.34.
In the case of `O=C(O)c1ccc(NC2OC[C@@H](O)[C@H](O)[C@H]2O)cc1` (some centres not stated), the pIC50 was below 4.34.
Regarding `C/C=C/C[C@@H](C)[C@@H](O)[C@H]1C(=O)N[C@@H](CC)C(=O)N(C)CC(=O)N(C)[C@@H](CC(C)C)C(=O)N[C@@H](C(C)C)C(=O)N(C)[C@@H](CC(C)C)C(=O)N[C@@H](C)C(=O)N[C@H](C)C(=O)N(C)[C@@H](CC(C)C)C(=O)N(C)[C@@H](CC(C)C)C(=O)N(C)[C@@H](C(C)C)C(=O)N1C`, the pIC50 was below 4.34.
The compound `CO[C@@]1(NC(=O)C(C(=O)[O-])c2ccc(O)cc2)C(=O)N2C(C(=O)[O-])=C(CSc3nnnn3C)CO[C@@H]21.[Na+].[Na+]` (some centres not stated) gave a negative-log IC50 (pIC50) below 4.34.
Take `NS(=O)(=O)c1cc2c(cc1Cl)N=C(CSCc1ccccc1)NS2(=O)=O`: the pIC50 was below 4.34.
The compound `CNc1ccc(C(=O)CC(O)CCC(C)C2OC(=O)CC(O)CC(=O)CC(O)CC(O)CC(O)CC(O)CC3(O)CC(O)C(C(=O)OC)C(CC(O[C@@H]4O[C@H](C)[C@@H](O)[C@H](N)[C@@H]4O)/C=C/C=C/C=C/C=C/C=C/C=C/C=C/C2C)O3)cc1` (some centres not stated) showed a pIC50 below 4.34.
`CC(C)(C)CC(C)(C)c1cc(Cc2cc(C(C)(C)CC(C)(C)C)cc(-n3nc4ccccc4n3)c2O)c(O)c(-n2nc3ccccc3n2)c1` showed a pIC50 below 4.34.
The compound `CC(C)(N)Cc1ccc(Cl)cc1.Cl` showed a negative-log IC50 (pIC50) below 4.34.
Consider `CN1[C@@H]2CC[C@H]1C[C@@H](OC(c1ccccc1)c1ccccc1)C2.CS(=O)(=O)O`, for which the pIC50 is below 4.34.
In turn, `CCCCCCCC(=O)OCC(COC(=O)CCCCCCC)OC(=O)CCCCCCC` gave a pIC50 below 4.34.
`C[C@@](Cc1ccc(O)c(O)c1)(NN)C(=O)O` gave a pIC50 below 4.34.
